The term IC50 denotes the concentration needed to halve the response being measured.

Experimental findings from ChEMBL document CHEMBL3612055, “Design, synthesis and biological evaluation of 1,3-diphenyl-1H-pyrazole derivatives containing benzimidazole skeleton as potential anticancer and apoptosis inducing agents” (Eur J Med Chem, 2015) are described below.

One test deals with HeLa. Description: Anticancer activity against human HeLa cells assessed as reduction in cell growth incubated for 48 hrs by MTT assay. It counts as functional, cell-based. For orientation: Formazan colour is commonly taken as a measure of viable cells.
A further test relates to MCF7. The experiment in a line: Anticancer activity against human MCF7 cells assessed as reduction in cell growth incubated for 48 hrs by MTT assay. The format is functional, cell-based. The note with it: MCF7, 48 h.
The next test deals with A549. Description: Anticancer activity against human A549 cells assessed as reduction in cell growth incubated for 48 hrs by MTT assay. The conditions noted are these: A549, 48 h. It counts as functional, cell-based.
The next test relates to HaCaT. The experiment in a line: Cytotoxic activity against human HaCaT cells assessed as reduction in cell growth incubated for 48 hrs by MTT assay. The format is cell-based.

Each structure is given as a SMILES string.

As to `COc1ccc(-c2nn(-c3ccccc3)cc2-c2nc3cc(Cl)ccc3[nH]2)cc1`, the IC50 in the test on HeLa was 1.29 µM; in the test with MCF7, 1.76 µM; with A549 it was 3.13 µM; with HaCaT it was above 50 µM.
The matching figures for `COc1ccc(-c2nn(-c3ccccc3)cc2-c2nc3cc(Br)ccc3[nH]2)cc1`: 1.06 µM, 1.83 µM, 6.37 µM and above 50 µM.
On the same counts, the results for `Fc1ccc(-c2nn(-c3ccccc3)cc2-c2nc3ccccc3[nH]2)cc1` are 2.33 µM, 3.2 µM, 1.51 µM and above 50 µM.
The matching figures for `Clc1cc2nc(-c3cn(-c4ccccc4)nc3-c3ccccc3)[nH]c2cc1Cl`: 13.4 µM, 7.56 µM, 11.1 µM and 29.7 µM.
Regarding `c1ccc(-c2nn(-c3ccccc3)cc2-c2nc3ccccc3[nH]2)cc1`, the IC50 in the test on HeLa is 1.55 µM; in the test with MCF7 it was 3.19 µM; with A549, 2.71 µM; with HaCaT, above 50 µM.
On the same counts, the results for `Fc1ccc2[nH]c(-c3cn(-c4ccccc4)nc3-c3ccccc3)nc2c1` are 3.61 µM, 2.43 µM, 1.72 µM and above 50 µM.
The matching figures for `Cc1ccc2[nH]c(-c3cn(-c4ccccc4)nc3-c3ccc(F)cc3)nc2c1`: 3.63 µM, 1.12 µM, 1.44 µM and above 50 µM.
The matching figures for `COc1ccc2[nH]c(-c3cn(-c4ccccc4)nc3-c3ccc(F)cc3)nc2c1`: 7.51 µM, 0.97 µM, 1.96 µM and above 50 µM.
Take `Cc1ccc2[nH]c(-c3cn(-c4ccccc4)nc3-c3ccccc3)nc2c1`: the IC50 in the test on HeLa is 6.56 µM; with MCF7, 5.94 µM; in the test with A549 it was 3.61 µM; with HaCaT it was above 50 µM.
For the compound `COc1ccc(-c2nn(-c3ccccc3)cc2-c2nc3cc(OC)ccc3[nH]2)cc1`, the IC50 in the test with HeLa was 1.14 µM; with MCF7 it was 3.13 µM; with A549, 22.7 µM; in the test with HaCaT, above 50 µM.
The matching figures for `COc1ccc(-c2nn(-c3ccccc3)cc2-c2nc3cc4ccccc4cc3[nH]2)cc1`: 12.4 µM, 7.46 µM, 11.9 µM and above 50 µM.
On the same counts, the results for `Cc1cc2nc(-c3cn(-c4ccccc4)nc3-c3ccccc3)[nH]c2cc1C` are 41.5 µM, above 50 µM, 14.5 µM and above 50 µM.
The matching figures for `COc1ccc2[nH]c(-c3cn(-c4ccccc4)nc3-c3ccc(Cl)cc3)nc2c1`: 3.63 µM, 1.76 µM, 2.42 µM and above 50 µM.
In the case of `Fc1ccc(-c2nn(-c3ccccc3)cc2-c2nc3cc(Cl)ccc3[nH]2)cc1`, the IC50 in the test on HeLa was 2.77 µM; with MCF7, 2.23 µM; in the test with A549, 1.32 µM; with HaCaT, above 50 µM.
The matching figures for `Fc1ccc2[nH]c(-c3cn(-c4ccccc4)nc3-c3ccc(Cl)cc3)nc2c1`: 2.77 µM, 2.83 µM, 4.61 µM and above 50 µM.
The matching figures for `Fc1ccc(-c2nn(-c3ccccc3)cc2-c2nc3cc4ccccc4cc3[nH]2)cc1`: 23.6 µM, 9.24 µM, 21.5 µM and above 50 µM.
On the same counts, the results for `O=Cc1cn(-c2ccccc2)nc1-c1ccc(F)cc1` are 16.6 µM, 24.8 µM, 8.66 µM and above 50 µM.
Consider `Fc1ccc(-c2nn(-c3ccccc3)cc2-c2nc3cc(Cl)c(Cl)cc3[nH]2)cc1`, for which the IC50 with HeLa is 11.6 µM; in the test on MCF7, 6.93 µM; in the test with A549, 15.7 µM; with HaCaT, 44.6 µM.
The matching figures for `Clc1ccc(-c2nn(-c3ccccc3)cc2-c2nc3cc(Cl)c(Cl)cc3[nH]2)cc1`: 12.1 µM, 48.3 µM, 19.1 µM and above 50 µM.
On to `COc1ccc(-c2nn(-c3ccccc3)cc2-c2nc3cc(C(F)(F)F)ccc3[nH]2)cc1`, for which the IC50 was 2.76 µM with HeLa, 5.73 µM with MCF7, 4.82 µM with A549 and above 50 µM in the test on HaCaT.
The matching figures for `c1ccc(-c2nn(-c3ccccc3)cc2-c2nc3cc4ccccc4cc3[nH]2)cc1`: 21.3 µM, 12.6 µM, 19.3 µM and above 50 µM.
On the same counts, the results for `Cc1cc2nc(-c3cn(-c4ccccc4)nc3-c3ccc(Cl)cc3)[nH]c2cc1C` are 21.8 µM, 13 µM, 17.7 µM and above 50 µM.
The matching figures for `O=c1[nH]cc(F)c(=O)[nH]1` [FLUOROURACIL]: 4.6 µM, 2.36 µM, 2.13 µM and 15.3 µM.
As for `COc1ccc(-c2nn(-c3ccccc3)cc2-c2nc3cc(Cl)c(Cl)cc3[nH]2)cc1`, the IC50 in the test with HeLa is 6.6 µM; in the test with MCF7, 13.2 µM; with A549, 7.33 µM; with HaCaT it was above 50 µM.
On the same counts, the results for `Clc1ccc(-c2nn(-c3ccccc3)cc2-c2nc3ccccc3[nH]2)cc1` are 1.65 µM, 3.03 µM, 5.96 µM and above 50 µM.
For the compound `Cc1ccc2[nH]c(-c3cn(-c4ccccc4)nc3-c3ccc(Cl)cc3)nc2c1`, the IC50 with HeLa is 5.36 µM; in the test on MCF7 it was 8.23 µM; with A549, 4.64 µM; with HaCaT, above 50 µM.
For `Fc1ccc(-c2nn(-c3ccccc3)cc2-c2nc3cc(Br)ccc3[nH]2)cc1`, the IC50 with HeLa was found to be 4.94 µM; in the test with MCF7 it was 3.21 µM; in the test on A549 it was 5.83 µM; with HaCaT, 21.8 µM.
As to `COc1ccc2[nH]c(-c3cn(-c4ccccc4)nc3-c3ccccc3)nc2c1`, the IC50 in the test with HeLa was 2.87 µM; in the test with MCF7 it was 1.59 µM; in the test with A549, 1.23 µM; in the test on HaCaT, above 50 µM.
On the same counts, the results for `O=Cc1cn(-c2ccccc2)nc1-c1ccc(Cl)cc1` are 15.5 µM, 9.65 µM, 29.5 µM and above 50 µM.
On the same counts, the results for `COc1ccc(-c2nn(-c3ccccc3)cc2-c2nc3cc(C)ccc3[nH]2)cc1` are 3.29 µM, 6.61 µM, 5.07 µM and above 50 µM.
On the same counts, the results for `Cc1cc2nc(-c3cn(-c4ccccc4)nc3-c3ccc(F)cc3)[nH]c2cc1C` are 10.2 µM, 27.2 µM, above 50 µM and above 50 µM.
For the compound `FC(F)(F)c1ccc2[nH]c(-c3cn(-c4ccccc4)nc3-c3ccc(Cl)cc3)nc2c1`, the IC50 in the test on HeLa turned out to be 4.42 µM; in the test with MCF7 it was 4.21 µM; with A549 it was 3.36 µM; in the test on HaCaT it was 41.8 µM.
Consider `Fc1ccc(-c2nn(-c3ccccc3)cc2-c2nc3cc(C(F)(F)F)ccc3[nH]2)cc1`, for which the IC50 in the test on HeLa was 3.52 µM; in the test with MCF7, 2.13 µM; in the test on A549, 2.34 µM; with HaCaT, above 50 µM.
On the same counts, the results for `Clc1ccc2[nH]c(-c3cn(-c4ccccc4)nc3-c3ccccc3)nc2c1` are 3.48 µM, 1.96 µM, 2.37 µM and above 50 µM.
For the compound `COc1ccc(-c2nn(-c3ccccc3)cc2-c2nc3cc(F)ccc3[nH]2)cc1`, the concentration for half-maximal inhibition (IC50) in the test on HeLa was 1.74 µM; in the test on MCF7, 1.51 µM; with A549 it was 1.98 µM; with HaCaT, above 50 µM.
The matching figures for `FC(F)(F)c1ccc2[nH]c(-c3cn(-c4ccccc4)nc3-c3ccccc3)nc2c1`: 1.92 µM, 2.66 µM, 5.93 µM and 37.2 µM.
On the same counts, the results for `Clc1ccc(-c2nn(-c3ccccc3)cc2-c2nc3cc4ccccc4cc3[nH]2)cc1` are 8.13 µM, 13.9 µM, 7.73 µM and above 50 µM.
As for `Clc1ccc(-c2nn(-c3ccccc3)cc2-c2nc3cc(Br)ccc3[nH]2)cc1`, the IC50 with HeLa was 2.16 µM; in the test on MCF7, 1.92 µM; with A549, 2.17 µM; with HaCaT, above 50 µM.
Consider `COc1ccc(-c2nn(-c3ccccc3)cc2-c2nc3ccccc3[nH]2)cc1`, for which the IC50 with HeLa is 3.67 µM; in the test on MCF7, 2.54 µM; in the test with A549, 2.36 µM; with HaCaT it was above 50 µM.
The matching figures for `COc1ccc(-c2nn(-c3ccccc3)cc2-c2nc3cc(C)c(C)cc3[nH]2)cc1`: 8.93 µM, 12.8 µM, 5.85 µM and 21.4 µM.
